# Results reported in patent US20220142948A1, “COMPOSITIONS AND METHODS FOR MODULATING METABOLIC REGULATORS OF T CELL PATHOGENICITY” (The Broad Institute, Inc., priority 2019, published 2022).
# Entries after “also recorded” stand apart in the source; their conditions may differ.
# What was measured:
# [1] = system: Th17 cells (Th17n, Th17p); assay: T cell differentiation culture and flow cytometry (intracellular cytokine and transcription factor staining, CellTrace proliferation); conditions: for IL-17 positive CD4 T cells / IL-17 expression: glycolysis enzyme inhibitors, non-pathogenic or pathogenic Th17 conditions, cells after one division
# Protocol: Naïve CD4+CD44-CD62L+CD25-T cells were sorted using BD FACSAria sorter and activated with plate-bound anti-CD3 (1 μg/ml) and antiCD28 antibodies (2 μg/ml) in the presence of cytokines at a concentration of 5×10^5 cells/ml.
# Naïve CD4+CD44-CD62L+CD25− T cells with or without including IL-17A.GFP+ were sorted using BD FACSAria sorter and activated with plate-bound anti-CD3 and antiCD28 antibodies (each 1 μg/ml) in the presence of cytokines at a concentration of 5×10^5 cells/ml. For T cell differentiations the following combinations of cytokines were used: pathogenic Th17 (Th17p): 25 ng/ml rmIL-6, 20 ng/ml rmIL-1b (both Miltenyi Biotec) and 20 ng/ml rmIL-23 (R&D systems); non-pathogenic Th17 (Th17n): 25 ng/ml rmIL-6 and 2 ng/ml of rhTGFb1 (Miltenyi Biotec). For differentiation experiments, cells were harvested at 72 hours and were performed in the presence or absence of 50 μM EGCG (Selleck Chemicals), 50 μM DHEA, 40 μM DCA, 10 μM Shikonin (all Sigma) as indicated.
# Proliferation was assessed by staining with CellTrace Violet (Thermo Fisher Scientific) per manufacturer's instructions. All stainings were analyzed on a FACS LSR II (BD Bioscience) and using FlowJo software.
# [2] = system: Th17 cells (Th17n, Th17p); assay: Legendplex analysis of cytokines in culture supernatant; type: cell-based, mouse; conditions: glycolysis enzyme inhibitors; Th17 cell cultures
# Protocol: (§1) Legendplex. Cytokine concentrations in supernatants of in vitro cultures were analyzed by the LegendPlex Mouse Th Cytokine Panel (13-plex) (BioLegend) according to the manufacturer's instructions and analyzed on a FACS LSR II (BD Biosciences).
# Seahorse assay was performed and seahorse media was prepared following manufacturer instructions (Agilent). Cells were re-stimulated with PMA/ionomycin for four hours in the presence of brefaldin and monensin before analysis for cytokines by intracellular cytokine staining. Cytokine concentrations in supernatants of in vitro cultures were analyzed by the LegendPlex Mouse Th Cytokine Panel (13-plex) (BioLegend) according to the manufacturer's instructions and analyzed on a FACS LSR II (BD Biosciences).
# [3] = system: experimental autoimmune encephalomyelitis (EAE); assay: Adoptive transfer EAE with 2D2 TCR-transgenic Th17 cells differentiated in the presence of inhibitor; type: in vivo, mouse
# Text: For adoptive transfer EAE, naïve 2D2 transgenic T cells were sorted and differentiated into Th17n cells+/−EGCG or Th17p+/−DHEA as described for three days followed by a resting phase in the presence of IL-23 alone for 2 days. Cells were then harvested and restimulated with plate-bound anti-CD3 and anti-CD28 for 2 days prior to transfer. 2-8 million cells were transferred per mouse intravenously.
# For adoptive transfer EAE, naive T cells (CD4+CD44-CD62L+CD25-) were isolated from 2D2 TCR-transgenic mice and activated with anti-CD3 ([…]) and anti-CD28 ([…]) in the presence of differentiation cytokines for 68h. Cells were rested for 2 days and restimulated with plate-bound anti-CD3 (0.5 mg/ml for pathogenic condition; […] for non-pathogenic condition) and anti-CD28 ([…]) for 2 days prior to transfer. Equal number (2 to 8 million) cells were transferred per mouse intravenously.
# [4] = system: Th17n, Th17p and iTreg cells; assay: Population (bulk) RNA-seq of in vitro differentiated T cells; type: cell-based, mouse
# Protocol: (§2) RNA-seq. For population (bulk) RNA-seq, in vitro differentiated T-cells were sorted for live cells and lysed with RLT Plus buffer and RNA was extracted using the RNeasy Plus Mini Kit (Qiagen). Full-length RNA-seq libraries were prepared as previously described and paired-end sequenced (75 bp×2) with a 150 cycle Nextseq 500 high output V2 kit.
# Bulk RNA-Seq and SMART-Seq2 analysis. Applicants aligned single-cell SMART-Seq2 libraries with Bowtie2, quantified TPM gene expression with RSEM, and performed QC as Applicants described in detail in a previous publication^51. This computational pipeline is a massively revised and updated version of the one originally used to analyze these libraries^19. Batch effects and other nuisance factors were normalized with a model chosen empirically with SCONE ^52. Bulk RNA-Seq were processed with a modified variant of the same pipeline. In the absence of UMIs, differentially expressed genes were called through a linear model fitted to TPM values with the limma R package and with a mean-variance trend added to the empirical bayes prior^53,54.
# as §2
# Bulk RNA libraries from DFMO- or vehicle-treated Th17p, Th17n, or Treg were studied with 3 replicates per condition for a total of 18 libraries as shown in FIG. 36A. Genes that are associated with a Th17 or Treg programs (orange and purple, respectively, in FIG. 36B-C) were determined by differential expression test between bulk RNA libraries of (vehicle-treated) Th17n and Th17p on one side and Treg on the other with BH-adjusted p<0.05 and absolute value of log 2 fold-change of at least 1.5. Genes associated with the Th17p or Th17n program (magenta and green, respectively, in FIG. 40A) were determined by differential expression test between bulk RNA libraries of (vehicle-treated) Th17p vs. Th17n with the same thresholds. The PCA shown in FIG. 36A was computed on the set of 3,414 that were differentially associated with Th17, Treg, Th17p, or Th17n programs by the aforementioned criteria to focus it on the subspace of the transcriptome relevant to Th17 pathogenicity phenotypes.
# Applicants aligned single-cell SMART-Seq libraries with Bowtie2, quantified TPM gene expression with RSEM, and performed QC as Applicants described in detail in a previous publication (Fletcher et al., 2017). This computational pipeline is a massively revised and updated version of the one originally used to analyze these libraries (Gaublomme et al., 2015). Batch effects and other nuisance factors were normalized with a model chosen empirically with SCONE (Cole et al., 2019). Bulk RNA-Seq were processed with a modified variant of the same pipeline.
# For the Smart-Seq libraries, due the absence of UMIs in the dataset, differentially expressed genes were called through a linear model _tted to TPM values with the limma R package and with a mean-variance trend added to the empirical Bayes prior (Ritchie et al., 2015). For the bulk RNA libraries, differentially expressed genes were called with limma-trend or limma-voom (Law et al., 2014) depending on the variance of library sizes, as recommended in the limma package manual (Smyth, 2019).
# [5] = system: MOG35-55 specific T cells; assay: Antigen-specific recall response of draining lymph node cells to MOG35-55 (thymidine incorporation, Legendplex); type: in vivo, mouse; conditions: mice transferred with DHEA-treated Th17p cells
# Protocol: FIG. 37A-37I—Targeting ODC1 and SAT1 alleviate EAE. (A) Schematics of the polyamine pathway; (B-D) The effects of chemical inhibition of ODC1 by DFMO on EAE. Wildtype mice were immunized with MOG35-55/CFA to induce experimental autoimmune encephalomyelitis and followed for clinical scoring. DFMO were provided in drinking water from day 0 for 10 days in experimental group. B, Clinical score over time. […] C, Antigen-specific cell proliferation is measured by thymidine incorporation after culturing cells isolated from draining lymph node of mice (d15 post immunization) with increasing dose of MOG35-55 peptide for 3 days. D, Flow cytometric analysis of intracellular Foxp3 expression in T cells isolated from CNS at day 15 post immunization. (E-I) The effects of genetic perturbation of SAT1. E, The effects of SAT1 deficiency on metabolome. Abundance of metabolites in the polyamine pathway were determined by LC/MS based metabolomics. Th17n and Th17p cells were differentiated in vitro from naïve cells isolated from WT or SAT1^−/− mice. (F-I) The effects of SAT1 deficiency on EAE. EAE were induced as in (B) in wildtype and SAT1^fl/flCD4^cre mice. F, Clinical score (left) and histological score (right) showing the number of CNS infiltrates show representative experiment with 5 WT and 8 CKO mice. G-H, Cells were isolated from draining lymph node of mice (d23 post immunization) and co-cultured with increasing dose of MOG35-55 peptide for 3 days. Antigen-specific cell proliferation is measured by thymidine incorporation (G) and antigen-specific cytokine secretion by legendplex (H). I, Flow cytometry analysis of intracellular transcription factor expression in CD4 T cells isolated from CNS day 15 post immunization. Linear regression analysis (b, c, f, g), two-way anova (e) and student t test (d, i) were used for statistical analysis.
# FIG. 46A-46J—EGCG exacerbates and DHEA ameliorates Th17-induced EAE in vivo. 2D2 TCR-transgenic Th17 cells were adoptively transferred after differentiation in vitro in the presence of an inhibitor or vehicle as indicated. (A, C, G) Clinical outcome of EAE; (B, D) Histological score based on cell infiltrates in meninges and parenchyma of CNS; (E, F) Draining lymph node (cervical) from respective mice were isolated and pulsed with increasing dose of MOG35-55 peptide for 3 days and (E) subjected to thymidine incorporation assay; or (F) measurement of cytokine secretion by Legendplex and flow cytometry. Concentrations were normalized through division by the respective response to no antigen control (H-I) Independent pathological report of CNS isolated from mice with EAE at end point (d35 for EGCG experiments; d28 for DHEA experiment); Optic nerves were not found in the histologic section from one animal in the EGCG+IL-23 group. (J) Representative histology of spinal cord and spinal nerve roots. […] PC, posterior column; PH, posterior horn. Individual mouse numbers are indicated. […] All are H. & E., 40× objective. Three similar experiments were performed.
# [6] = system: other histone demethylases; conditions: cited from earlier work
# KDMSC = KDMSC (Homo sapiens, UniProt P41229); conditions: cited from earlier work
# KDMSB = KDMSB (Homo sapiens, UniProt Q9UGL1); conditions: cited from earlier work
# UTX (KDM6A) = UTX (KDM6A) (Homo sapiens, UniProt O15550); conditions: cited from earlier work
# 100 protein kinases = conditions: at a concentration of 30 μM; cited from earlier work
# KDMSA = KDMSA (Homo sapiens, UniProt P29375); conditions: cited from earlier work
# Th17n and Th17p cells = assay: Seahorse assay, oxygen consumption rate; type: cell-based, mouse; conditions: 40 uM etomoxir
# Protocol: FIG. 44A-44I—Differential usage of glycolysis and fatty acid oxidation by pathogenic and non-pathogenic Th17 cells. (A) A diagram of central carbon metabolism, overlaid with Compass prediction for differential potential activity between Th17p and Th17n. […] (B) Th17n, Th17p and Treg cells were differentiated as described (STAR Methods) and replated with Seahorse media at 68h for Seahorse assay. Extracellular acidification rate (ECAR) and oxygen consumption rate (OCR) are reported in response to mitostress test. (C) Th17p and Th17n cells were differentiated and harvested at 68h (left columns) or replated in fresh media with no TCR stimulation or cytokine for 15 minutes (right columns) and subject to LC/MS based metabolomics. (D) Cells were harvested as in C and pulsed with 13C-tagged glucose for 15 minutes. Shown is the ratio of 13C-tagged carbon out of the total carbon content associated with the metabolite (STAR Methods). (E) Th17n and Th17p cells were measured for their oxygen consumption rate in the presence of control or 40 uM etomoxir. […]
# as §1, with “Seahorse assay was performed and seahorse media was prepared following manufacturer instructions (Agilent). […]” for “Legendplex.”
# Sequence of KDMSB (Q9UGL1 whole entry): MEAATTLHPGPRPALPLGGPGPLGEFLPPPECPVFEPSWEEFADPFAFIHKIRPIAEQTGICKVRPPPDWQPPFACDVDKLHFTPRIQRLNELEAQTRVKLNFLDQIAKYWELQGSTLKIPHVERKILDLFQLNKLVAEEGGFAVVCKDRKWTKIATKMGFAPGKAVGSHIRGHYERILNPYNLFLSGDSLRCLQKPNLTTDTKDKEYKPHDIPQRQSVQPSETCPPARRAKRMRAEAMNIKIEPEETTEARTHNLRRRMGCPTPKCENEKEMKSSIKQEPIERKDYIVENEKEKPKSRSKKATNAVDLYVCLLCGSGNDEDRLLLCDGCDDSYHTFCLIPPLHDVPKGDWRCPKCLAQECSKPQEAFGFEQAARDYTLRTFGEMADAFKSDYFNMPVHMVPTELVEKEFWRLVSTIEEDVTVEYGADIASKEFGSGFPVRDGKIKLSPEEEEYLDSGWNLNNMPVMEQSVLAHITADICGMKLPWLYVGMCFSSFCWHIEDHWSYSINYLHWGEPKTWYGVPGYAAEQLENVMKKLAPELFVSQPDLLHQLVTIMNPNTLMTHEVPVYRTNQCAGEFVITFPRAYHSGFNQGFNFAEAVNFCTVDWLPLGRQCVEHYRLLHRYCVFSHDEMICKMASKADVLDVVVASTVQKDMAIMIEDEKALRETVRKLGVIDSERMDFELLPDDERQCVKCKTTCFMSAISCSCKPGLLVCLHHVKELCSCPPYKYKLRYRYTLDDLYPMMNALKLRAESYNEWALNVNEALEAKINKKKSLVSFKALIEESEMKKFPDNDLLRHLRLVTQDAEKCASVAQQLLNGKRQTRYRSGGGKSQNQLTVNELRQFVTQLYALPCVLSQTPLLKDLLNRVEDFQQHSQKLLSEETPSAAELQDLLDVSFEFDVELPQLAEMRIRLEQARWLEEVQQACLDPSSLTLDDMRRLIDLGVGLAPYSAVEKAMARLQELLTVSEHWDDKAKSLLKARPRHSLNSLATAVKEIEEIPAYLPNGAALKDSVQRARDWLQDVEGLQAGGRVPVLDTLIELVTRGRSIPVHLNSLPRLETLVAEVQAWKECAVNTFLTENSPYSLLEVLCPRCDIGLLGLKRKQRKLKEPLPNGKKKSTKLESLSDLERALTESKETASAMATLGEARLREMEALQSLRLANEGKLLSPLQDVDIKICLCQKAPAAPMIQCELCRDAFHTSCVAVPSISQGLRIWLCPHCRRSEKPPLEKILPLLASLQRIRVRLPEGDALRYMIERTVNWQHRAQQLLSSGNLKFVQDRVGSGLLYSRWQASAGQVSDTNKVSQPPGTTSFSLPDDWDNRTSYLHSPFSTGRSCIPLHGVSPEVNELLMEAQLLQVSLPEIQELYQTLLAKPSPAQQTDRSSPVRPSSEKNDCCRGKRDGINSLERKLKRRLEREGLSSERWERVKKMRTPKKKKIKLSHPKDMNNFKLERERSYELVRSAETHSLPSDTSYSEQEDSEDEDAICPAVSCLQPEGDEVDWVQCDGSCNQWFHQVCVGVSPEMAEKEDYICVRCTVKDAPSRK
# Sequence of UTX (KDM6A) (O15550 whole entry, species assumed): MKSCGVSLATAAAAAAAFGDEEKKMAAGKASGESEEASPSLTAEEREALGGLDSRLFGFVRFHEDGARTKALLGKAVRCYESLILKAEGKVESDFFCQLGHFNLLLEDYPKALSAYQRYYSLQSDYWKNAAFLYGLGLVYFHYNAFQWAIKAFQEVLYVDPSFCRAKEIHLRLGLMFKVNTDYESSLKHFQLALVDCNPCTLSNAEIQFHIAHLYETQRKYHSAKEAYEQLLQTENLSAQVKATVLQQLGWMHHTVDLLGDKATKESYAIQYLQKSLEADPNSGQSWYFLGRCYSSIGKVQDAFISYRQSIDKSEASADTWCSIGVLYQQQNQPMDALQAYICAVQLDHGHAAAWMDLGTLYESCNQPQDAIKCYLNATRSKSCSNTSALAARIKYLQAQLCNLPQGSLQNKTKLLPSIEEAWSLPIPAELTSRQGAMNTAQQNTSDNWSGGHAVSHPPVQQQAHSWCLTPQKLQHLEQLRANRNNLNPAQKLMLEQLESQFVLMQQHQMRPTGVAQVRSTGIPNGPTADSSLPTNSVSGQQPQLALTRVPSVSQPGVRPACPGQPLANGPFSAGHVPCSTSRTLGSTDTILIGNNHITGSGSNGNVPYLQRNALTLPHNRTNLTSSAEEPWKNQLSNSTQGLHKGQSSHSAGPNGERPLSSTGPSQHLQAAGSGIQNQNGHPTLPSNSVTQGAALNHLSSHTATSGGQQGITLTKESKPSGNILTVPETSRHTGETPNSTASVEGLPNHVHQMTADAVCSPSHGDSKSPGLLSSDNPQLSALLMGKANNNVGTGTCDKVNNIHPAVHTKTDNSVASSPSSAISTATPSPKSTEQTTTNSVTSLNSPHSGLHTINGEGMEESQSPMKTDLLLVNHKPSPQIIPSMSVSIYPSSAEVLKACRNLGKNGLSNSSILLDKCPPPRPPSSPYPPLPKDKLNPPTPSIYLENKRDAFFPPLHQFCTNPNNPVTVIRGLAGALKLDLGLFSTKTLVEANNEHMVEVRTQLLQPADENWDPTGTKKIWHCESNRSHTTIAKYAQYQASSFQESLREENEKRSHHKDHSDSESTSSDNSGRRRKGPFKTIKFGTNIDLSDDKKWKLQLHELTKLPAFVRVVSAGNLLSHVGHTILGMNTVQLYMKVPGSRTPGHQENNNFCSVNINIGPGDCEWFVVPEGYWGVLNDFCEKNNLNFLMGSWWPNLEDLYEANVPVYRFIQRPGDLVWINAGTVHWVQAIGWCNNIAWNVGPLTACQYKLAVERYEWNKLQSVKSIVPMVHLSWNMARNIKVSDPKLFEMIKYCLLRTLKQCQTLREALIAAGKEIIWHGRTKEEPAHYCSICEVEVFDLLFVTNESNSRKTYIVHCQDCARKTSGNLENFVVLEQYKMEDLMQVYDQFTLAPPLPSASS
# Sequence of KDMSC (P41229 whole entry): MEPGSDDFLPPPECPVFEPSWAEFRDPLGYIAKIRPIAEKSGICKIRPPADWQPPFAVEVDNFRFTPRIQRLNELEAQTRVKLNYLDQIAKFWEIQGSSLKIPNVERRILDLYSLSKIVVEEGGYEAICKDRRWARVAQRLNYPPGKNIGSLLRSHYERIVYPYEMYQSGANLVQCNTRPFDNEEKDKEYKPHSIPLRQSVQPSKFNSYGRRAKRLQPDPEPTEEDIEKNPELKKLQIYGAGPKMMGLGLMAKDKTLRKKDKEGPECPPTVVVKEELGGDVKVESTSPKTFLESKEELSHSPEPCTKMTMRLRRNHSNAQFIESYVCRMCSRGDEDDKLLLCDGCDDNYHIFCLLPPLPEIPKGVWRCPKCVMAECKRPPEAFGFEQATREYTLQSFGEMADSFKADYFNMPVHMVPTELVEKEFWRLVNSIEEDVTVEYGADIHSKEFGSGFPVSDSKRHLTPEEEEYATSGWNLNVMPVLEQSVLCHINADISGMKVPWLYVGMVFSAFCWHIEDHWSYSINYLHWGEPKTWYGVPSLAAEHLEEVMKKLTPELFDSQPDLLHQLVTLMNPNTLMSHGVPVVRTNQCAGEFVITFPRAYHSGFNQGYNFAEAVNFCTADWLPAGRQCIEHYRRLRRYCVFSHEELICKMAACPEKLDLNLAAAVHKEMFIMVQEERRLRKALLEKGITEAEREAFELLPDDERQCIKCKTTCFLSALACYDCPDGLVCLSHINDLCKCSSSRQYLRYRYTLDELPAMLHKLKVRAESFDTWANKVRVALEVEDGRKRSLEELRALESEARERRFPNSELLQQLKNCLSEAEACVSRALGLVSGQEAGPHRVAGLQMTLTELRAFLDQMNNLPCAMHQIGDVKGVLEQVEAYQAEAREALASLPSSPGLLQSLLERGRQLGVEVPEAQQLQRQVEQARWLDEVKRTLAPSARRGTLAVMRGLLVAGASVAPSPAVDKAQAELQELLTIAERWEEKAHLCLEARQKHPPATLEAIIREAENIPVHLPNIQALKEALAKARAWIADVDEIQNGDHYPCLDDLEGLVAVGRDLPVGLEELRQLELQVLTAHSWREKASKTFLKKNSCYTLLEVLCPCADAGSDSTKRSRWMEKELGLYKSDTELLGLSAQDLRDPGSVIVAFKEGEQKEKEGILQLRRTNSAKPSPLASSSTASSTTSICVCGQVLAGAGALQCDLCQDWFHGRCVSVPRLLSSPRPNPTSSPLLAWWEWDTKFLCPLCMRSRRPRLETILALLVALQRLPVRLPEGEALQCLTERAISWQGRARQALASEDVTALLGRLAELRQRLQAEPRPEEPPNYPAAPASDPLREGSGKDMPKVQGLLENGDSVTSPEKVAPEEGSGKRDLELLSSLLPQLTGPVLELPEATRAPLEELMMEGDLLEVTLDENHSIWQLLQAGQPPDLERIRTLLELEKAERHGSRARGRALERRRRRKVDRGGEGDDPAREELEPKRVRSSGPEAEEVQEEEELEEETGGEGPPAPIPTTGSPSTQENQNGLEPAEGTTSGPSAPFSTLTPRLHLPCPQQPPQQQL
structure (smiles),measurement,setting,value
"O=C(OCC(O)CO)C(Cl)Cl (stereo not shown) [DCA, 2,3-dihydroxypropyl-dichloroacetate]",IL-17 positive CD4 T cells / IL-17 expression,[1],increase
same,cytokine profile / cytokine production,[2],retained their cytokine profile
"C[C@]12CC[C@H](O)CC1=CC[C@@H]1[C@@H]2CC[C@]2(C)C(=O)CC[C@@H]12 [DHEA, dehydroepiandrosterone]",optic neuritis/perineuritis in host mice,"[3]; EGCG on Th17n, DHEA on Th17p",restricted
same,EAE induced by Th17p cells,[3]; Th17p cells differentiated with inhibitor vs vehicle,induced a milder form of the disease; also recorded: alleviates EAE; also recorded: reduced the severity of disease at peak of EAE; also recorded: ameliorates
same,IL-17 positive CD4 T cells / IL-17 expression,[1],decrease
same,IL1RN transcripts,[4],significant decrease
same,IL9 transcripts,[4],significant decrease
same,pro-pathogenic transcriptional program / module,[4]; Th17n cells,does not induce an opposite effect
same,decrease in TBX21 (Tbet) transcripts,[4]; Th17p,1 fold
same,pathogenic program,[4]; Th17p cells,suppresses the pathogenic program
same,IL23R transcripts,[4]; both Th17p and Th17n,significant decrease
same,TBX21 transcripts,[4]; both Th17p and Th17n,significant decrease
same,decrease in IL-23R transcripts,[4]; both Th17p and Th17n,over 3 fold
same,position on PC1 (pathogenicity phenotype),[4]; bulk RNA-Seq of d1 Th17n and Th17p cells,shifted them to a less pathogenic state
same,IL-2 secretion in response to MOG,[5],increased
same,antigen-specific cytokine secretion in response to MOG,[5],no significant alterations
same,cytokine profile / cytokine production,[2],curtailed cytokine production
O=C(O)CCNc1cc(N2CCc3ccccc3CC2)nc(-c2ccccn2)n1 [GSK-J1],IC50,[6],> 20 µM
same,IC50,KDMSC,0.55 µM
same,IC50,KDMSB,0.17 µM
same,IC50,UTX (KDM6A),0.053 µM
same,inhibitory activity against 100 protein kinases,100 protein kinases,no significant inhibitory activity
same,IC50,KDMSA,6.8 µM
CCOC(=O)[C@@]1(CCCCCCOc2ccc(Cl)cc2)CO1 [etomoxir],oxygen consumption rate,Th17n and Th17p cells,decreased
NCCCCN [putrescine],rescue by putrescine of the observed effects of ODC1−/−,[1]; ODC1−/− Th17 cells,rescued
same,reversal by putrescine of the upregulation of Foxp3 by SAT1 inhibitor,"[1]; Th17n cells, 2.5 mM putrescine",partially reversed
same,rescue of the effect of DFMO by addition of putrescine,"[1]; cells treated with DFMO, 2.5 mM putrescine",rescues the effect of DFMO; also recorded: completely reversed their phenotype
same,rescue by putrescine of the effect of diminazene aceturate,[1]; non-pathogenic Th17 cells,rescues the effect of diminazene aceturate
same,rescue of the effect of DFMO by addition of putrescine,[1]; non-pathogenic Th17 cells,rescues the effect of DFMO
same,rescue by putrescine of the DFMO-induced increase in FoxP3 CD4 T cells,[1]; nonpathogenic Th17 cells,rescues the increase in FoxP3 CD4 T cells
same,rescue of the effect of DFMO by addition of putrescine,[1]; pathogenic and non-pathogenic Th17 cells,rescues the effect of DFMO
